Data as given in PubChem BioAssay (NCI).
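How tested: cells in 96-well plates exposed to compound for 48 hours at five concentrations. TGI is the concentration that stops growth completely.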

Key:
Assay in all cases: DTP human tumour cell line panel, 48 h
MOLT-4 leukemia = test system: MOLT-4 leukemia
HL-60(TB) leukemia = test system: HL-60(TB) leukemia
LOX IMVI melanoma = test system: LOX IMVI melanoma
MDA-N = test system: MDA-N
786-0 renal = test system: 786-0 renal
UACC-62 melanoma = test system: UACC-62 melanoma
MALME-3M melanoma = test system: MALME-3M melanoma
NCI-H23 lung = test system: NCI-H23 lung
HCT-116 colon = test system: HCT-116 colon
A549 NSCLC = test system: A549 NSCLC
SNB-19 CNS = test system: SNB-19 CNS
ACHN renal = test system: ACHN renal
MCF7 breast = test system: MCF7 breast
HOP-62 NSCLC = test system: HOP-62 NSCLC
HCT-15 colon = test system: HCT-15 colon
T-47D breast = test system: T-47D breast
RXF 393 renal = test system: RXF 393 renal
SR leukemia = test system: SR leukemia
UACC-257 melanoma = test system: UACC-257 melanoma

CC1=NN(C(=O)CC(=O)NC(=O)/C=C\c2ccccc2)C(=O)C1N=Nc1ccc([N+](=O)[O-])cc1 (centres undefined)
TGI (MOLT-4 leukemia): > 100 µM
TGI (HL-60(TB) leukemia): > 100 µM
TGI (LOX IMVI melanoma): > 100 µM
TGI (MDA-N): > 100 µM
TGI (786-0 renal): > 100 µM
TGI (UACC-62 melanoma): > 100 µM
TGI (MALME-3M melanoma): > 100 µM
TGI (NCI-H23 lung): > 100 µM
TGI (HCT-116 colon): > 100 µM
TGI (A549 NSCLC): > 100 µM
TGI (SNB-19 CNS): > 100 µM
TGI (ACHN renal): > 100 µM
TGI (MCF7 breast): > 100 µM
TGI (HOP-62 NSCLC): > 100 µM
TGI (HCT-15 colon): > 100 µM
TGI (T-47D breast): > 100 µM
TGI (RXF 393 renal): > 100 µM

Clc1ccc(C(Cc2ccccc2)c2c(Cl)nc(N3CCNCC3)nc2Cl)cc1 (centres undefined)
TGI (MOLT-4 leukemia): 15.9 µM
TGI (HL-60(TB) leukemia): 10.7 µM
TGI (LOX IMVI melanoma): 10.6 µM
TGI (786-0 renal): 30.1 µM
TGI (UACC-62 melanoma): 44 µM
TGI (MALME-3M melanoma): 28.4 µM
TGI (NCI-H23 lung): 36.8 µM
TGI (HCT-116 colon): 20.5 µM
TGI (A549 NSCLC): 30.4 µM
TGI (SNB-19 CNS): 28.6 µM
TGI (ACHN renal): 29.9 µM
TGI (MCF7 breast): 20 µM
TGI (SR leukemia): 3.71 µM
TGI (HOP-62 NSCLC): 30.2 µM
TGI (HCT-15 colon): 14.5 µM
TGI (T-47D breast): 29.6 µM
TGI (UACC-257 melanoma): 34 µM

CC(C)(C)[Si](C)(C)OCCc1ccccc1C1CC2(S(=O)(=O)c3ccccc3)ON1CC2S(=O)(=O)c1ccccc1 (centres undefined)
TGI (MOLT-4 leukemia): > 100 µM
TGI (MDA-N): > 100 µM
TGI (786-0 renal): > 100 µM
TGI (UACC-62 melanoma): > 100 µM
TGI (NCI-H23 lung): > 100 µM
TGI (HCT-116 colon): > 100 µM
TGI (A549 NSCLC): > 100 µM
TGI (SNB-19 CNS): > 100 µM
TGI (ACHN renal): > 100 µM
TGI (MCF7 breast): > 100 µM
TGI (HOP-62 NSCLC): > 100 µM
TGI (T-47D breast): > 100 µM
TGI (RXF 393 renal): > 100 µM
TGI (UACC-257 melanoma): > 100 µM

C=C1CCC2[C@](C)(CCC[C@]2(C)C(=O)O)[C@@H]1CCc1ccoc1 (some centres undefined)
TGI (MOLT-4 leukemia): > 100 µM
TGI (HL-60(TB) leukemia): 71.2 µM
TGI (LOX IMVI melanoma): 38 µM
TGI (MDA-N): > 100 µM
TGI (786-0 renal): > 100 µM
TGI (UACC-62 melanoma): > 100 µM
TGI (MALME-3M melanoma): > 100 µM
TGI (NCI-H23 lung): 50.7 µM
TGI (HCT-116 colon): 88.4 µM
TGI (A549 NSCLC): > 100 µM
TGI (SNB-19 CNS): > 100 µM
TGI (ACHN renal): > 100 µM
TGI (SR leukemia): 70.4 µM
TGI (HOP-62 NSCLC): > 100 µM
TGI (HCT-15 colon): > 100 µM
TGI (T-47D breast): > 100 µM
TGI (RXF 393 renal): > 100 µM
TGI (UACC-257 melanoma): 83.5 µM

c1ccc(C2=NN=C3C(c4ccccc4)=Nc4ccccc4N3C2)cc1
TGI (MOLT-4 leukemia): > 52.3 µM
TGI (HL-60(TB) leukemia): 22.2 µM
TGI (LOX IMVI melanoma): > 100 µM
TGI (MDA-N): > 100 µM
TGI (786-0 renal): > 100 µM
TGI (UACC-62 melanoma): > 100 µM
TGI (MALME-3M melanoma): 97.9 µM
TGI (NCI-H23 lung): > 100 µM
TGI (HCT-116 colon): > 95.6 µM
TGI (A549 NSCLC): > 100 µM
TGI (SNB-19 CNS): > 100 µM
TGI (ACHN renal): > 100 µM
TGI (MCF7 breast): > 77.4 µM
TGI (HOP-62 NSCLC): > 100 µM
TGI (HCT-15 colon): > 100 µM
TGI (T-47D breast): > 100 µM
TGI (RXF 393 renal): > 100 µM
TGI (UACC-257 melanoma): 32.4 µM

CN(/N=C/C=N/N(C)C1=NCCCN1)C1=NCCCN1
TGI (MOLT-4 leukemia): > 100 µM
TGI (LOX IMVI melanoma): > 100 µM
TGI (MDA-N): > 100 µM
TGI (786-0 renal): > 100 µM
TGI (UACC-62 melanoma): > 100 µM
TGI (MALME-3M melanoma): > 100 µM
TGI (NCI-H23 lung): > 100 µM
TGI (HCT-116 colon): > 100 µM
TGI (A549 NSCLC): > 100 µM
TGI (SNB-19 CNS): > 100 µM
TGI (ACHN renal): > 100 µM
TGI (MCF7 breast): > 100 µM
TGI (SR leukemia): > 100 µM
TGI (HOP-62 NSCLC): > 100 µM
TGI (HCT-15 colon): > 100 µM
TGI (RXF 393 renal): > 100 µM
TGI (UACC-257 melanoma): > 100 µM

CC(C)(C)C1=CC(=C2C=Cc3cc(O)ccc3O2)C=C(C(C)(C)C)C1=O
TGI (HL-60(TB) leukemia): 3.15 µM
TGI (LOX IMVI melanoma): 3.03 µM
TGI (786-0 renal): 2.68 µM
TGI (UACC-62 melanoma): 2.76 µM
TGI (MALME-3M melanoma): 3.16 µM
TGI (NCI-H23 lung): 3.58 µM
TGI (HCT-116 colon): 2.43 µM
TGI (A549 NSCLC): 3.04 µM
TGI (SNB-19 CNS): 3.3 µM
TGI (ACHN renal): 3.06 µM
TGI (MCF7 breast): 3.02 µM
TGI (SR leukemia): 3.86 µM
TGI (HOP-62 NSCLC): 4.02 µM
TGI (HCT-15 colon): 5.51 µM
TGI (T-47D breast): 2.16 µM
TGI (RXF 393 renal): 3.16 µM
TGI (UACC-257 melanoma): 3.07 µM

CC(=Nc1cccc(Cl)c1)c1ccncc1
TGI (MOLT-4 leukemia): > 100 µM
TGI (LOX IMVI melanoma): > 100 µM
TGI (MDA-N): > 100 µM
TGI (786-0 renal): > 100 µM
TGI (UACC-62 melanoma): > 100 µM
TGI (MALME-3M melanoma): > 100 µM
TGI (NCI-H23 lung): > 100 µM
TGI (HCT-116 colon): > 100 µM
TGI (A549 NSCLC): > 100 µM
TGI (SNB-19 CNS): > 100 µM
TGI (ACHN renal): > 100 µM
TGI (MCF7 breast): > 100 µM
TGI (HOP-62 NSCLC): > 100 µM
TGI (HCT-15 colon): > 100 µM
TGI (T-47D breast): > 100 µM
TGI (RXF 393 renal): > 100 µM

COc1c2cc([N+](=O)[O-])cc1CN(C(=O)C(F)(F)F)CCOCCN(C(=O)C(F)(F)F)C2
TGI (MOLT-4 leukemia): > 100 µM
TGI (HL-60(TB) leukemia): > 100 µM
TGI (LOX IMVI melanoma): > 100 µM
TGI (MDA-N): > 100 µM
TGI (786-0 renal): > 100 µM
TGI (UACC-62 melanoma): > 100 µM
TGI (MALME-3M melanoma): > 100 µM
TGI (NCI-H23 lung): > 100 µM
TGI (HCT-116 colon): > 100 µM
TGI (A549 NSCLC): > 100 µM
TGI (SNB-19 CNS): > 100 µM
TGI (ACHN renal): > 100 µM
TGI (MCF7 breast): > 100 µM
TGI (HOP-62 NSCLC): > 100 µM
TGI (HCT-15 colon): > 100 µM
TGI (T-47D breast): > 100 µM
TGI (UACC-257 melanoma): > 100 µM

C=C1C2CC3CCC2C(OC(=O)c2ccccc2C(=O)O)C13 (centres undefined)
TGI (MOLT-4 leukemia): > 100 µM
TGI (HL-60(TB) leukemia): > 100 µM
TGI (LOX IMVI melanoma): > 100 µM
TGI (MDA-N): > 100 µM
TGI (786-0 renal): > 100 µM
TGI (UACC-62 melanoma): > 100 µM
TGI (MALME-3M melanoma): > 100 µM
TGI (NCI-H23 lung): > 100 µM
TGI (HCT-116 colon): > 100 µM
TGI (A549 NSCLC): > 100 µM
TGI (SNB-19 CNS): > 100 µM
TGI (ACHN renal): > 100 µM
TGI (SR leukemia): > 100 µM
TGI (HOP-62 NSCLC): > 100 µM
TGI (HCT-15 colon): > 100 µM
TGI (T-47D breast): > 100 µM
TGI (RXF 393 renal): > 100 µM
TGI (UACC-257 melanoma): > 100 µM

C/C(O)=C(\C=NC(=S)c1cccnc1)C(=O)Nc1ccccc1C
TGI (MOLT-4 leukemia): > 100 µM
TGI (LOX IMVI melanoma): > 100 µM
TGI (MDA-N): > 100 µM
TGI (786-0 renal): > 100 µM
TGI (UACC-62 melanoma): > 100 µM
TGI (NCI-H23 lung): > 100 µM
TGI (HCT-116 colon): > 100 µM
TGI (A549 NSCLC): > 100 µM
TGI (SNB-19 CNS): > 100 µM
TGI (ACHN renal): > 100 µM
TGI (MCF7 breast): > 100 µM
TGI (HOP-62 NSCLC): > 100 µM
TGI (HCT-15 colon): > 100 µM
TGI (T-47D breast): > 100 µM
TGI (RXF 393 renal): > 100 µM
TGI (UACC-257 melanoma): > 100 µM

CCOC(=O)c1csc(C(CSCc2ccc(OC)cc2)N2C(=O)c3ccccc3C2=O)n1 (centres undefined)
TGI (MOLT-4 leukemia): > 100 µM
TGI (HL-60(TB) leukemia): > 100 µM
TGI (LOX IMVI melanoma): > 100 µM
TGI (786-0 renal): > 100 µM
TGI (UACC-62 melanoma): > 100 µM
TGI (MALME-3M melanoma): > 100 µM
TGI (NCI-H23 lung): > 100 µM
TGI (HCT-116 colon): > 100 µM
TGI (A549 NSCLC): > 100 µM
TGI (SNB-19 CNS): > 100 µM
TGI (ACHN renal): > 100 µM
TGI (MCF7 breast): > 100 µM
TGI (SR leukemia): > 100 µM
TGI (HOP-62 NSCLC): > 100 µM
TGI (HCT-15 colon): > 100 µM
TGI (T-47D breast): > 100 µM
TGI (RXF 393 renal): > 100 µM
TGI (UACC-257 melanoma): > 100 µM

O=C(OCc1ccccc1)c1ccc(NCc2cc(O)ccc2O)cc1
TGI (HL-60(TB) leukemia): 2.56 µM
TGI (LOX IMVI melanoma): 3.14 µM
TGI (MDA-N): 4.6 µM
TGI (786-0 renal): 2.67 µM
TGI (UACC-62 melanoma): 3.15 µM
TGI (MALME-3M melanoma): 2.98 µM
TGI (NCI-H23 lung): 3.73 µM
TGI (HCT-116 colon): 3.02 µM
TGI (A549 NSCLC): 20.5 µM
TGI (SNB-19 CNS): 10.8 µM
TGI (ACHN renal): 2.77 µM
TGI (MCF7 breast): 7.81 µM
TGI (HOP-62 NSCLC): 20.1 µM
TGI (HCT-15 colon): 2.42 µM
TGI (RXF 393 renal): 2.4 µM
TGI (UACC-257 melanoma): 3.4 µM
